“Also recorded” adds a separate entry of the source.
Test: Metabolite identification in rats
Type: in vivo, Han Wistar rats
Settings: rat, 1 mg/kg intravenous, up to 24 hours
Experimental: The formation of metabolites in rats was assessed to determine the propensity of the compounds to form a biaryl metabolite.
The corresponding sulfonamide compounds (for example, reference compound HMC-C-01-A) give rise to a sulphonamide metabolite which is persistent and has a long half-life. In addition, the biaryl sulphonamide metabolite acts as an inducer of metabolism in rats, which may complicate the assessment of toxicity in rodents. Therefore, the lower the propensity to form a biaryl sulphonamide metabolite, the greater the potential suitability of the compound for development for human use.
Plasma samples from Han Wistar rats, aged 8-12 weeks, were collected from animals dosed with test compound. Test compounds at a dose of 1 mg/kg were administered intravenously as a solution in 5% NMP, 5% Solutol HS, and 90% normal saline. Animals were given free access to food throughout the study. Blood samples were taken under light isoflurane anaesthesia at 12 time points following an intravenous dose (0.033, 0.1, 0.167, 0.25, 0.5, 1, 2, 4, 6, 8, 12, and 24 hours). The blood samples were collected from a set of three rats at each time point in labelled micro centrifuge tube containing K2EDTA as anticoagulant. Plasma samples were separated by centrifugation of whole blood.
All samples were processed for analysis by protein precipitation using acetonitrile and analysed with a fit-for-purpose LC-MS/MS method.
At the completion of the study, the results were expressed as detection of the metabolite and time course of formation.

C[C@]1(O)CC[C@H](NS(=O)(=O)c2ccc(-c3ccc(Cl)cc3C#N)cc2)CC1 [HMC-C-01-A, reference compound]
formation of biaryl sulphonamide metabolite (MET-001) in plasma: formed in large quantities and accumulated over time; also recorded: in large quantities (which accumulated over time)

From patent US11834414B2, “1-methyl-4-[(4-phenylphenyl)sulfonylmethyl]cyclohexyanol and 1-methyl-4-[[4-(2-pyridyl)phenyl]sulfonylmethyl]cyclohexanol compounds and their therapeutic use” (Modern Biosciences Limited, priority 2018, dated 2023)
